In patent US6696478B2, “Cancer treatment with Gö6976 and its related compounds” (priority 1999, dated 2004):

Columns and labels:
[1] = system: HepG2 human liver cancer cells; assay: Cell viability assay (trypan blue), liver cancer cells, second set; type: cell-based; settings: seven days after treatment
Procedure: HepG2 human liver cancer cells,
(§1) These cells were maintained in Dulbecco's modified Eagle medium (DMEM) supplemented with 10 percent bovine calf serum.
(§2) Cells were seeded for 24 hours. Then they were either treated with Gö6976, C-o 002, or C-o 003, or left untreated. The cells were then collected periodically and evaluated using trypan blue dye exclusion to asses viability using the method described by CY Chen, et al, in J.Biol. Chem. 273:16700-16709.
(§3) Two sets of approximately 5×10^5 DU145 prostate cancer cells, HepG2 liver cancer cells, AGS gastric cancer cells, and T84 colorectal cancers were seeded and 24 hours later one of the sets were treated with 2 μm Gö6976. Seven days after treatment, viable cells were counted.
(§4) Two sets of approximately 5×10^5 human MDA-MB-468 breast cancer cells, DU145 human prostate cancer cells, A549 lung cancer cells, AGS gastric cancer cells, and T84 colorectal cancer cells were seeded and treated with 14 μm C-o 002 and C-o 003 24 hours later. Seven days after treatment, viable cells were counted.

[2] = system: MDA-MB-468 human breast cancer cells; assay: Cell viability assay (trypan blue), breast cancer cells, second set; type: cell-based; settings: 14 μm compound; approximately 5×10^5 cells seeded; seven days after treatment
Procedure: MDA-MB-468 human breast cancer cells
as §1, §2, §4

[3] = system: AGS human gastric cancer cells; assay: Cell viability assay (trypan blue), gastric cancer cells, second set; type: cell-based; settings: approximately 5×10^5 cells seeded, seven days after treatment
Procedure: AGS human gastric cancer cells,
as §1, §2, §3, §4

[4] = system: T84 human colorectal cancer cells; assay: Cell viability assay (trypan blue), colorectal cancer cells, second set; type: cell-based; settings: approximately 5×10^5 cells seeded, seven days after treatment
Procedure: T84 human colorectal cancer cells,
as §1, §2, §3, §4

[5] = system: A549 human lung cancer cells; assay: Cell viability assay (trypan blue), lung cancer cells, second set; type: cell-based; settings: 14 μm compound; approximately 5×10^5 cells seeded; seven days after treatment
Procedure: A549 human lung cancer cells,
as §1, §2, §4

[6] = system: DU145 human prostate cancer cells; assay: Cell viability assay (trypan blue), prostate cancer cells, second set; type: cell-based; settings: approximately 5×10^5 cells seeded, seven days after treatment
Procedure: DU145 human prostate cancer cells,
as §1, §2, §3, §4

[7] = system: HL60 human acute promyelocytic leukemia cells; assay: Cell viability assay (trypan blue), leukemia cells; type: cell-based; settings: 2 micromoles Gö6976; 5×10^5 cells at start; after four days (FIG. 4)
Procedure: HL60 human acute promyelocytic leukemia cells were grown in RPMI 1640 medium containing 10 percent heat-inactivated fetal bovine serum (FBS).
(§5) Cells were seeded for 24 hours. Then they were either treated with Gö6976 or left untreated. The cells were then collected periodically and evaluated using trypan blue dye exclusion to asses viability using the method described by CY Chen, et al, in J.Biol. Chem. 273:16700-16709.
One of two samples of 5×10^5 cells was treated with 2 micromoles of Gö6976 and the viable cells were counted after four days. At four days the cells in the untreated sample had grown by a factor of nearly 10 to almost 5×10^6 cells whereas viable cells in the treated sample was less than 0.2×10^5.

C6 glioma cells = assay: Cell growth, brain tumor cells, second set; type: cell-based; settings: 2 μm Gö6976 for 7 days; approximately 5×10^5 cells seeded (FIG. 10)
Procedure: as §1, §2
(§6) Two sets of approximately 5×10^5 C6 glioma cells and Hela cervical cancer cells were seeded and treated or untreated with 2 μm Gö6976 for 7 days.

[8] = system: 3Y1 cells overexpressing EGF receptors; assay: Anchorage-independent cell growth in soft agar (EGF-induced colony formation); type: cell-based, rat; settings: 100 ng/ml EGF and 250 nanamoles Gö6976; three weeks in soft agar (FIG. 8)
Text: (§7) 3Y1 rat fibroblast cells overexpressing the epidermal growth factor receptor (EGFR).
For growth of these cells in soft agar, 1×10^3 cells were suspended in top agar (consisting of 20 percent calf serum, 0.38 percent agar and the remainder DMEM) and overlaid onto hardened bottom agar (DMEM, 20 percent calf serum and 0.7 percent agar) as reported by Sementchenko et al, in Onocgen 17:2883-2888.
The effect of Gö6976 on blocking EGF-induced cell transformation was further confirmed by checking anchorage-independent cell growth. […] One sample was left untreated, one was treated with 100 ng/ml of EGF, one sample was treated with 100 ng/ml of EGF and 250 nanamoles of Gö6976 and one sample was treated with 250 nanaomoles of Gö6976. In each case the percentage of cell forming colonies were determined three weeks after suspending the cells in soft agar.

[9] = system: Hela human cervical cancer cells; assay: Cell growth, cervical cancer cells, second set; type: cell-based; settings: 2 μm Gö6976 for 7 days; approximately 5×10^5 cells seeded (FIG. 10)
Procedure: Hela human cervical cancer cells
as §1, §2, §6

[10] = system: normal cells including rat 3Y1 fibroblast; assay: Toxic effects on normal cells; type: cell-based
Text: Toxic effects begin to show up at concentrations of about 5 micromoles in these types of cells.

PKC α = settings: cited from earlier work
[11] = system: human breast cancer cells (MDA-MB-468 and MDA-MB-453); assay: Cell viability assay (trypan blue dye exclusion), breast cancer cells, first set; type: cell-based; settings: for viable cell count: about 5×10^5 cells at start, counted at day 4 (FIG. 2)
Procedure: MDA-MB-468 human breast cancer cells,
MDA-MB-453 human breast cancer cells,
as §1, §5
In both FIG. 2 and FIG. 3 error bars indicated the estimated standard error based on three independent experiments.

[12] = system: Non-small cell lung cancer cells (NCI-H2342); assay: Cell viability assay (trypan blue), non-small cell lung cancer cells; type: cell-based; settings: treated with Gö6976 (concentration not given); about 5×10^5 cells at start; day 4 (FIG. 5)
Procedure: Non-small cell lung cancer cells (NCI-H2342).
(§8) Small cell lung cancer cells were grown in RPMI 1640 medium with 2 mM L-glutamine adjusted to contain 1.5 g/L sodium bicarbonate, 4.5 g/L glucose, 10 mM HEPES, 1.0 mM sodium pyruvate, and 5% fetal bovine serum. Non-small cell lung cancer cells were grown in RPMI 1640 medium supplemented with 5% fetal bovine serum, 5 ug/ml insulin, 10 ug/ml transferrin, 30 nM sodium selenite, 10 nM hydrocortisone, 10 nM beta-estradiol, 10 mM HEPES, and 2 mM L- glutamine.
as §5
(§9) Two samples each of about 5×10^5 cells small lung cancer cells and non-small lung cancer cells were prepared and one sample of each type was treated with Gö6976 and the viable cells were counted at day 4. In the untreated samples the cancer cells had multiplied by almost a factor of 10 and in the treated samples the count had decreased to less than 0.5 of the original count.

[13] = system: U-2 OS human osteosacoma cells; assay: Cell viability assay (trypan blue), osteosarcoma cells; type: cell-based; settings: 2 micromoles Gö6976; about 5×10^5 cells at start; after four days (FIG. 6)
Procedure: U-2 OS human osteosacoma cells,
as §1, §5
One of two samples of about 5×10^5 cells was treated with 2 micromoles of Gö6976 and the viable cells were counted after four days.

[14] = system: A431 human epidermoid carcinoma cells; assay: Cell viability assay (trypan blue), epidermoid carcinoma cells; type: cell-based; settings: 2 micromoles Gö6976; about 5×10^5 cells at start; at four days; untreated grew by a factor of about 24 (FIG. 7)
Procedure: A431 human epidermoid carcinoma cells,
as §1, §5
One of two samples of about 5×10^5 cells was treated with 2 micromoles of Gö6976 and the viable cells were counted each 24 hours for four days.

[15] = system: 3Y1 cells overexpressing EGF receptors; assay: EGF-induced cell transformation (morphology); type: cell-based, rat
Text: as §7, §1

[16] = system: Small cell lung cancer cells (NCI-H048); assay: Cell viability assay (trypan blue), small cell lung cancer cells; type: cell-based; settings: treated with Gö6976 (concentration not given); about 5×10^5 cells at start; day 4 (FIG. 5)
Procedure: Small cell lung cancer cells (NCI-H048),
as §8, §5, §9

NCCCn1c2ccccc2c2c3c(c4c5ccccc5[nH]c4c21)CNC3 [C-o 002, 12-(3-Aminopropyl)-5,6,7,12,13-pentahydro-indolo[2,3,-a] pyrrolo [3,4-c] carbazole]
viable cells counted ([1]; 14 μm compound): 0
viable cells counted [2]: 0
viable cells counted ([3]; 14 μm compound): 0
viable cells counted ([4]; 14 μm compound): 1.9 × 10^4
viable cells counted [5]: 7 × 10^5
viable cells counted ([6]; 14 μm compound): 0

Cl.NCCCn1c2ccccc2c2c3c(c4c5ccccc5[nH]c4c21)CNC3 [C-o 003, 12-(3-Aminopropyl)-5,6,7,12,13-pentahydro-indolo[2,3,-a] pyrrolo [3,4-c] carbazole hydrochloride]
viable cells counted ([1]; 14 μm compound): 0
viable cells counted [2]: 0
viable cells counted ([3]; 14 μm compound): 0
viable cells counted ([4]; 14 μm compound): 2.7 × 10^4
viable cells counted [5]: 8.5 × 10^5
viable cells counted ([6]; 14 μm compound): 0

Cn1c2ccccc2c2c3c(c4c5ccccc5n(CCC#N)c4c21)CNC3=O [Gö6976, 12-(2-Cyanoethyl)-6,7,12,13-tetrahydro-13-methyl-5-oxo-5H-indolo[2,3-a]pyrrolo[3,4-c]carbazole]
viable cells in the treated sample [7]: less than 0.2×10^5
cell growth (C6 glioma cells): significant inhibited the growth
viable cells counted ([1]; 2 μm Gö6976, approximately 5×10^5 cells seeded): 0
colony forming efficiency of EGF (percentage of cell forming colonies) [8]: greatly reduced
cell growth [9]: significant inhibited the growth
viable cells counted ([3]; 2 μm Gö6976): 0
toxic effects on normal cells ([10]; concentrations used in the first set of experiments): no significant toxic effects
concentration at which toxic effects begin to show up ([10]; normal cells): about 5 micromoles
TPA-induced downregulation of PKC α (PKC α): prevented TPA-induced downregulation
viable cells counted ([4]; 2 μm Gö6976): 1.1 × 10^4
viable cell count ([11]; 1 micromole Gö6976): about 1×10^5
viable cell count ([11]; 2.0 micromolar Gö6976): less than 0.3×10^5
viable cell concentration over time ([11]; 2.0 micromoles Gö6976, measured at 24 hours intervals for 4 days (FIG. 3)): reduced by approximately half each 24 hours
viable cell count relative to the original count [12]: less than 0.5
viable cells in the treated sample relative to the original count [13]: reduced to about half the original count
viable cells in the treated sample relative to the original count [14]: approximately doubled
toxic effect on 3Y1 EGFR cells ([15]; Gö6976 alone): did not show any toxic effect
EGF-induced cell transformation (transformed morphology) ([15]; co-treatment with 250 nanamoles Gö6976 and 100 ng/ml EGF, 24 hours): completely blocked
viable cells counted ([6]; 2 μm Gö6976): 0
viable cell count relative to the original count [16]: less than 0.5
